{"source": "patent US11834483B2", "about": "“Immunostimulatory agents in combination with angiogenesis inhibitors” (Alkermes Pharma Ireland Limited, priority 2020, dated 2023)", "molecules": {"B1": {"name": "fusion protein of SEQ ID NO: 1: circularly permuted (cp) IL-2 variant fused to the extracellular domain of the IL-2Rα portion of the IL-2 receptor (protein)", "chain": "SKNFHLRPRDLISNINVIVLELKGSETTFMCEYADETATIVEFLNRWITFSQSIISTLTGGSSSTKKTQLQLEHLLLDLQMILNGINNYKNPKLTRMLTFKFYMPKKATELKHLQCLEEELKPLEEVLNLAQGSGGGSELCDDDPPEIPHATFKAMAYKEGTMLNCECKRGFRRIKSGSLYMLCTGNSSHSSWDNQCQCTSSATRNTTKQVTPQPEEQKERKTTEMQSPMQPVDQASLPGHCREPPPWENEATERIYHFVVGQMVYYQCVQGYRALHRGPAESVCKMTHGKTRWTQPQLICTG", "modifications": "Human cpIL-2IL-2R-alpha", "notes": "circularly permuted (cp) IL-2 variant fused to the extracellular domain of the IL-2Rα portion of the IL-2 receptor"}}, "key": {"[1]": {"tested_on": "CD8+ T cells, macrophages, dendritic cells", "assay": "Immune cells in tumors and spleens of treated mice", "type": "in vivo", "description": "The combination therapy of the invention provides many beneficial and unexpected therapeutic effects as evidenced by mice treated with SEQ ID NO: 2, the murine surrogate for SEQ ID NO: 1."}, "[2]": {"tested_on": "MC38 murine colon carcinoma cells", "settings": "for Median TTE: endpoint 1000 mm^3, 53 days; for Regressions CR: number of complete regressions; for Regressions PR: number of partial regressions; for Regressions TFS: tumor free survivors"}, "[3]": {"tested_on": "CD8+T cells, NK cells, Tregs", "settings": "first in human clinical data, U.S. Patent Publication Number 20210038684A1; cited from earlier work"}, "[4]": {"settings": "Group 2: Lenvatinib 10 mg/kg po qd × 28 (vehicle 1 sc)"}, "[5]": {"settings": "Group 2: Lenvatinib 10 mg/kg po qd × 28"}, "[6]": {"settings": "Group 3: Lenvatinib 30 mg/kg po qd × 28 (vehicle 1 sc)"}, "[7]": {"settings": "Group 3: Lenvatinib 30 mg/kg po qd × 28"}, "[8]": {"settings": "Group 4: Lenvatinib 100 mg/kg po qd × 28 (vehicle 1 sc)"}, "[9]": {"settings": "Group 4: Lenvatinib 100 mg/kg po qd × 28"}}, "note": "Like-named read-outs stand apart in the source and are kept apart here.", "data": [{"molecule": "COc1cc2nccc(Oc3ccc(NC(=O)NC4CC4)c(Cl)c3)c2cc1C(N)=O", "note": "[Lenvatinib, 4-[3-Chloro-4-(cyclopropylaminocarbonyl)aminophenoxy]-7-methoxy-6-quinolinecarboxamide]", "values": [{"measurement": "macrophages", "setting": "[1]", "value": "decrease in macrophages"}, {"measurement": "% TGD", "setting": "[2]; [4]", "value": 168, "unit": "%"}, {"measurement": "T − C", "setting": "[2]; [4]", "value": 24.0, "unit": "days"}, {"measurement": "Median TTE", "setting": "[2]; [4]", "value": 38.3, "unit": "days"}, {"measurement": "Regressions CR", "setting": "[2]; [5]", "value": 0}, {"measurement": "Regressions PR", "setting": "[2]; [5]", "value": 1}, {"measurement": "Regressions TFS", "setting": "[2]; [5]", "value": 0}, {"measurement": "% TGD", "setting": "[2]; [6]", "value": 162, "unit": "%"}, {"measurement": "T − C", "setting": "[2]; [6]", "value": 23.1, "unit": "days"}, {"measurement": "Median TTE", "setting": "[2]; [6]", "value": 37.4, "unit": "days"}, {"measurement": "Regressions CR", "setting": "[2]; [7]", "value": 0}, {"measurement": "Regressions PR", "setting": "[2]; [7]", "value": 0}, {"measurement": "Regressions TFS", "setting": "[2]; [7]", "value": 0}, {"measurement": "% TGD", "setting": "[2]; [8]", "value": 164, "unit": "%"}, {"measurement": "T − C", "setting": "[2]; [8]", "value": 23.4, "unit": "days"}, {"measurement": "Median TTE", "setting": "[2]; [8]", "value": 37.7, "unit": "days"}, {"measurement": "Regressions CR", "setting": "[2]; [9]", "value": 0}, {"measurement": "Regressions PR", "setting": "[2]; [9]", "value": 0}, {"measurement": "Regressions TFS", "setting": "[2]; [9]", "value": 0}]}, {"molecule": "B1", "values": [{"measurement": "expansion of CD8+T cells and NK cells versus Tregs", "setting": "[3]", "value": "activates expansion of CD8+T cells and NK cells in a dose dependent manner in the absence of dose dependent activation of Tregs"}]}]}
